Biological target: T1, USP7 (Homo sapiens, UniProt Q93009)
T1 construct: The USP7 construct was PCR amplified and cloned into a pFLAG-CMV-6a vector (Sigma-Aldrich) with an N-terminal FLAG tag; made in house; host or cells: HEK293T
Test: USP7 biochemical IC50 assay (fluorescence polarisation, TAMRA labelled peptide linked to ubiquitin via an iso-peptide bond)
Conditions: 30 min pre-incubation of enzyme and compound, read after 2 hr incubation at room temperature, read-out: IC50 range
In short: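 Fluorescence polarisation at 540 nm excitation/590 nm emission, read immediately and after 2 hr at room temperature, following addition of 50 nM TAMRA-labelled iso-peptide ubiquitin substrate.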

T1 sequence (Q93009 whole entry): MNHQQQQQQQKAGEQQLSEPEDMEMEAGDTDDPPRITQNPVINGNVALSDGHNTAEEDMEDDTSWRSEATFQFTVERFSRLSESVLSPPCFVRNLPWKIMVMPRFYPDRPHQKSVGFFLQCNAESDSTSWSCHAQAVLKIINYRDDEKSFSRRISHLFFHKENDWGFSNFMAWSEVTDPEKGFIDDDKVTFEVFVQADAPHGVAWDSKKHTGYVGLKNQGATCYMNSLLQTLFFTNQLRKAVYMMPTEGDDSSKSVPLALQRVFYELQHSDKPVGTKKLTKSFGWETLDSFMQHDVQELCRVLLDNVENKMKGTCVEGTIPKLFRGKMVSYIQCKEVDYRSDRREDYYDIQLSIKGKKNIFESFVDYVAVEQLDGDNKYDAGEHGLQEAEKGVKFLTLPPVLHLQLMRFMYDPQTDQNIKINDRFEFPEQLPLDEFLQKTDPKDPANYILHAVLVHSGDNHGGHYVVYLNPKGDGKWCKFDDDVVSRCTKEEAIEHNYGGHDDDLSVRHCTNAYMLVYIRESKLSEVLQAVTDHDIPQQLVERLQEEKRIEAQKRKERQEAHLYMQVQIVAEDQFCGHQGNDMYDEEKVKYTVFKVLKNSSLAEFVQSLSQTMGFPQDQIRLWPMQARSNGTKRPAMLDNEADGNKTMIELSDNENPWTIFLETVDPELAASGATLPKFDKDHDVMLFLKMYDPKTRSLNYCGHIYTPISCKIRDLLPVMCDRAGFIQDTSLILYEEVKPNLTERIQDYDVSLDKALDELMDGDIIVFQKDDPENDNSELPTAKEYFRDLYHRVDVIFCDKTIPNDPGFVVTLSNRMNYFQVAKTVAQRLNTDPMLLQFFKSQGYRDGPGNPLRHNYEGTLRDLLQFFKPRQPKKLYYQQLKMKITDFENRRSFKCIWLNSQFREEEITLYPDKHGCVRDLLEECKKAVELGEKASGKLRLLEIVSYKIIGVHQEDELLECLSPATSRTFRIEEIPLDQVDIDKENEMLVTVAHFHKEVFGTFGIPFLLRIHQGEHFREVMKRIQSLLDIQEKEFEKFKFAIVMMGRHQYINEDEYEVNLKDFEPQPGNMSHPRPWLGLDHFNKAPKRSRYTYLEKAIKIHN

Compound	IC50 [µM]
CN1CCC[C@@H](C(=O)Nc2cc3c(c(-c4ccc(C#N)cc4)c2)CN(C#N)C3)C1 [Example 26, (R)-N-(2-cyano-7-(4-cyanophenyl)isoindolin-5-yl)-1-methylpiperidine-3-carboxamide]	< 1
COC(=O)c1cc2c(c(-c3ccccc3)c1)CN(C#N)C2 [Example 98, methyl 2-cyano-7-phenylisoindoline-5-carboxylate]	1 to 10
CNC(=O)NCc1cc2c(c(-c3ccccc3C#N)c1)CN(C#N)C2 [Example 229, 1-((2-cyano-7-(2-cyanophenyl)isoindolin-5-yl)methyl)-3-methylurea]	1 to 10
CC(=O)c1ccccc1-c1cccc2c1CN(C#N)C2 [Example 159, 4-(2-acetylphenyl)isoindoline-2-carbonitrile]	1 to 10
N#Cc1ccc(-c2cc(NCCO)cc3c2CN(C#N)C3)cc1 [Example 271, 4-(4-cyanophenyl)-6-((2-hydroxyethyl)amino)isoindoline-2-carbonitrile]	1 to 10
CC(=O)N1CCC(CCc2cc3c(c(-c4ccc(C#N)cc4)c2)CN(C#N)C3)CC1 [Example 257, 6-(2-(1-acetylpiperidin-4-yl)ethyl)-4-(4-cyanophenyl)isoindoline-2-carbonitrile]	1 to 10
N#CN1Cc2nc(N[C@H]3CC[C@H](O)CC3)nc(-c3ccccc3)c2C1 [Example 110, 2-(((1R,4R)-4-hydroxycyclohexyl)amino)-4-phenyl-5H-pyrrolo[3,4-d]pyrimidine-6(7H)-carbonitrile]	1 to 10
N#CN1Cc2cccc(NC(=O)c3ccc(N4CCOCC4)s3)c2C1 [Example 93, N-(2-cyanoisoindolin-4-yl)-5-morpholinothiophene-2-carboxamide]	1 to 10
CS(=O)(=O)Cc1cc2c(c(-c3ccccc3)c1)CN(C#N)C2 [Example 253, 6-((methylsulfonyl)methyl)-4-phenylisoindoline-2-carbonitrile]	1 to 10
N#Cc1ccccc1-c1cccc2c1CN(C#N)C2 [Example 166, 4-(2-cyanophenyl)isoindoline-2-carbonitrile]	1 to 10
CN1CCOC(CN(C)c2nc3c(c(-c4ccccc4)n2)CN(C#N)C3)C1 (stereo not drawn) [Example 191, 2-(methyl((4-methylmorpholin-2-yl)methyl)amino)-4-phenyl-5,7-dihydro-6H-pyrrolo[3,4-d]pyrimidine-6-carbonitrile]	1 to 10
Cn1cc(-c2nnc(-c3ccccc3)c3c2CN(C#N)C3)cn1 [Example 97, 1-(1-methyl-1H-pyrazol-4-yl)-4-phenyl-5,7-dihydro-6H-pyrrolo[3,4-c]pyridazine-6-carbonitrile]	10 to 30
Cc1[nH]ncc1-c1nc2c(c(N3CCCC3C(N)=O)n1)CN(C#N)C2 (stereo not drawn) [Example 144, 1-(6-cyano-2-(5-methyl-1H-pyrazol-4-yl)-6,7-dihydro-5H-pyrrolo[3,4-d]pyrimidin-4-yl)pyrrolidine-2-carboxamide]	10 to 30
N#Cc1cc2c(c(-c3ccc(F)cc3C(N)=O)c1)CN(C#N)C2 [Example 296, 2-(2,6-dicyanoisoindolin-4-yl)-5-fluorobenzamide]	1 to 10
N#CN1Cc2nc(NCC(O)CO)cc(-c3ccc(F)cc3)c2C1 (stereo not drawn) [Example 250, 2-((2,3-dihydroxypropyl)amino)-4-(4-fluorophenyl)-5,7-dihydro-6H-pyrrolo[3,4-b]pyridine-6-carbonitrile]	1 to 10
N#Cc1ccc(-c2cc(C(N)=O)cc3c2CN(C#N)C3)c(C#N)c1 [Example 233, 2-cyano-7-(2,4-dicyanophenyl)isoindoline-5-carboxamide]	1 to 10
CC(=O)NCc1cc2c(c(-c3ccccc3)c1)CN(C#N)C2 [Example 214, N-((2-cyano-7-phenylisoindolin-5-yl)methyl)acetamide]	1 to 10
N#CN1Cc2cccc(Nc3ncc4ccccc4n3)c2C1 [Example 21, 4-(quinazolin-2-ylamino)isoindoline-2-carbonitrile]	1 to 10
N#CN1Cc2nc(NC3CCOCC3)nc(-c3ccccc3)c2C1 [Example 189, 4-phenyl-2-((tetrahydro-2H-pyran-4-yl)amino)-5,7-dihydro-6H-pyrrolo[3,4-d]pyrimidine-6-carbonitrile]	10 to 30
Cn1nccc1CNc1cc2c(c(-c3ccc(C#N)cc3)c1)CN(C#N)C2 [Example 276, 4-(4-cyanophenyl)-6-(((1-methyl-1H-pyrazol-5-yl)methyl)amino)isoindoline-2-carbonitrile]	1 to 10
N#CN1Cc2nccc(-c3ccc(Cl)cc3)c2C1 [Example 16, 4-(4-chlorophenyl)-5,7-dihydro-6H-pyrrolo[3,4-b]pyridine-6-carbonitrile]	1 to 10

Reference: patent US10683269B2 (MISSION THERAPEUTICS LIMITED, priority 2016, dated 2020)
